# From ChEMBL document CHEMBL3046832, “Synthesis of some sulfonamides, disubstituted sulfonylureas or thioureas and some structurally related variants. A class of promising antitumor agents” (2007)
# Assays:
# Assay type in all cases: functional
# MDA-MB-435 = assay: Cytotoxicity against Homo sapiens (human) MDA-MB-435 cells after 48 hr by SRB assay; conditions: MDA-MB-435, 48 h
# M14 = assay: Cytotoxicity against Homo sapiens (human) M14 cells after 48 hr by SRB assay; conditions: M14, 48 h
# LOX IMVI = assay: Cytotoxicity against Homo sapiens (human) LOXIMVI cells after 48 hr by SRB assay
# MCF7 [1] = assay: Cytotoxicity against Homo sapiens (human) MCF7 cells after 48 hr by SRB assay; conditions: MCF7, 48 h
# MDA-MB-231 = assay: Cytotoxicity against Homo sapiens (human) MDA-MB-231 cells after 48 hr by SRB assay; conditions: MDA-MB-231, 48 h
# UO-31 = assay: Cytotoxicity against Homo sapiens (human) UO31 cells after 48 hr by SRB assay; conditions: UO-31, 48 h
# PC-3 = assay: Cytotoxicity against Homo sapiens (human) PC3 cells after 48 hr by SRB assay; conditions: PC-3, 48 h
# RXF 393 = assay: Cytotoxicity against Homo sapiens (human) RXF393 cells after 48 hr by SRB assay; conditions: RXF 393, 48 h
# 786-0 = assay: Cytotoxicity against Homo sapiens (human) 786-0 cells after 48 hr by SRB assay; conditions: 786-0, 48 h
# SK-OV-3 = assay: Cytotoxicity against Homo sapiens (human) SKOV3 cells after 48 hr by SRB assay; conditions: SK-OV-3, 48 h
# OVCAR-5 = assay: Cytotoxicity against Homo sapiens (human) OVCAR5 cells after 48 hr by SRB assay; conditions: OVCAR-5, 48 h
# IGROV-1 = assay: Cytotoxicity against Homo sapiens (human) IGROV1 cells after 48 hr by SRB assay; conditions: IGROV-1, 48 h
# OVCAR-3 = assay: Cytotoxicity against Homo sapiens (human) OVCAR3 cells after 48 hr by SRB assay; conditions: OVCAR-3, 48 h
# UACC-62 = assay: Cytotoxicity against Homo sapiens (human) UACC62 cells after 48 hr by SRB assay; conditions: UACC-62, 48 h
# UACC-257 = assay: Cytotoxicity against Homo sapiens (human) UACC257 cells after 48 hr by SRB assay; conditions: UACC-257, 48 h
# SK-MEL-5 = assay: Cytotoxicity against Homo sapiens (human) SK-MEL-5 cells after 48 hr by SRB assay; conditions: SK-MEL-5, 48 h
# SK-MEL-2 = assay: Cytotoxicity against Homo sapiens (human) SK-MEL-2 cells after 48 hr by SRB assay; conditions: SK-MEL-2, 48 h
# SK-MEL-28 = assay: Cytotoxicity against Homo sapiens (human) SK-MEL-28 cells after 48 hr by SRB assay; conditions: SK-MEL-28, 48 h
# [2] = Cytotoxicity against Homo sapiens (human) breast cancer cells after 48 hr by SRB assay; conditions: Cancer cell lines
# [3] = Cytotoxicity against Homo sapiens (human) prostate cancer cells after 48 hr by SRB assay; conditions: Cancer cell lines
# [4] = Cytotoxicity against Homo sapiens (human) renal cancer cells after 48 hr by SRB assay; conditions: Cancer cell lines
# [5] = Cytotoxicity against Homo sapiens (human) ovarian cancer cells after 48 hr by SRB assay; conditions: Cancer cell lines
# [6] = Cytotoxicity against Homo sapiens (human) melanoma cells after 48 hr by SRB assay; conditions: Melanoma cell
# [7] = Cytotoxicity against Homo sapiens (human) CNS cancer cells after 48 hr by SRB assay; conditions: Cancer cell lines
# [8] = Cytotoxicity against Homo sapiens (human) colon cancer cells after 48 hr by SRB assay; conditions: Cancer cell lines
# [9] = Cytotoxicity against Homo sapiens (human) non-small cell lung cancer cells after 48 hr by SRB assay; conditions: Cancer cell lines
# [10] = Cytotoxicity against Homo sapiens (human) leukemia cells after 48 hr by SRB assay; conditions: Leukemia cell
# SF-268 [11] = assay: Cytotoxicity against Homo sapiens (human) SF268 cells assessed as cellular growth after 48 hr by Alamar blue assay; set-up: concentration or dose not given beside the values
# BT-549 = assay: Cytotoxicity against Homo sapiens (human) BT549 cells after 48 hr by SRB assay; conditions: BT-549, 48 h
# SNB-19 = assay: Cytotoxicity against Homo sapiens (human) SNB19 cells after 48 hr by SRB assay; conditions: SNB-19, 48 h
# SF-539 = assay: Cytotoxicity against Homo sapiens (human) SF539 cells after 48 hr by SRB assay; conditions: SF-539, 48 h
# SF-295 = assay: Cytotoxicity against Homo sapiens (human) SF295 cells after 48 hr by SRB assay; conditions: SF-295, 48 h
# SW-620 = assay: Cytotoxicity against Homo sapiens (human) SW620 cells after 48 hr by SRB assay; conditions: SW-620, 48 h
# SF-268 [12] = assay: Cytotoxicity against Homo sapiens (human) SF268 cells after 48 hr by SRB assay; conditions: SF-268, 48 h
# KM12 = assay: Cytotoxicity against Homo sapiens (human) KM12 cells after 48 hr by SRB assay; conditions: KM12, 48 h
# HCT-15 = assay: Cytotoxicity against Homo sapiens (human) HCT15 cells after 48 hr by SRB assay; conditions: HCT-15, 48 h
# HCC 2998 = assay: Cytotoxicity against Homo sapiens (human) HCC2998 cells after 48 hr by SRB assay; conditions: HCC 2998, 48 h
# NCI-H522 = assay: Cytotoxicity against Homo sapiens (human) NCI-H522 cells after 48 hr by SRB assay; conditions: NCI-H522, 48 h
# COLO 205 = assay: Cytotoxicity against Homo sapiens (human) COLO205 cells after 48 hr by SRB assay; conditions: COLO 205, 48 h
# [13] = Cytotoxicity against Homo sapiens (human) NCI-H322 cells after 48 hr by SRB assay; conditions: NCI-H322, 48 h
# NCI-H460 = assay: Cytotoxicity against Homo sapiens (human) NCI-H460 cells after 48 hr by SRB assay; conditions: NCI-H460, 48 h
# HOP-92 = assay: Cytotoxicity against Homo sapiens (human) HOP92 cells after 48 hr by SRB assay; conditions: HOP-92, 48 h
# EKVX = assay: Cytotoxicity against Homo sapiens (human) EKVX cells after 48 hr by SRB assay
# HOP-62 = assay: Cytotoxicity against Homo sapiens (human) HOP62 cells after 48 hr by SRB assay; conditions: HOP-62, 48 h
# CCRF-CEM = assay: Cytotoxicity against Homo sapiens (human) CCRF-CEM cells after 48 hr by SRB assay
# MCF7 [14] = assay: Cytotoxicity against Homo sapiens (human) MCF7 cells assessed as cellular growth after 48 hr by Alamar blue assay; set-up: concentration or dose not given beside the values
compound,measurement,setting,value
O=S(=O)(NC(=S)Nc1ccccc1)c1ccc(N2N=C3c4ccccc4CC3C2c2cccs2)cc1 (stereo not given),GI50,MDA-MB-435,19.4 µM
same,GI50,M14,22.7 µM
same,GI50,LOX IMVI,24.4 µM
same,GI50,MCF7 [1],3.1 µM
same,GI50,MDA-MB-231,24.8 µM
same,GI50,UO-31,51.2 µM
same,GI50,PC-3,22.9 µM
same,GI50,RXF 393,78.1 µM
same,GI50,786-0,19.7 µM
same,GI50,SK-OV-3,49.5 µM
same,GI50,OVCAR-5,17.9 µM
same,GI50,IGROV-1,65.3 µM
same,GI50,OVCAR-3,17.2 µM
same,GI50,UACC-62,18.5 µM
same,GI50,UACC-257,29.1 µM
same,GI50,SK-MEL-5,20.8 µM
same,GI50,SK-MEL-2,55.9 µM
same,GI50,SK-MEL-28,53.8 µM
same,GI50,[2],30.8 µM
same,TGI,[2],57.3 µM
same,GI50,[3],20.3 µM
same,TGI,[3],47.9 µM
same,GI50,[4],32.5 µM
same,TGI,[4],47 µM
same,GI50,[5],43 µM
same,TGI,[5],81.3 µM
same,GI50,[6],32.2 µM
same,TGI,[6],68.4 µM
same,GI50,[7],34 µM
same,TGI,[7],77.5 µM
same,GI50,[8],25.9 µM
same,TGI,[8],75.9 µM
same,GI50,[9],30.5 µM
same,TGI,[9],48.4 µM
same,GI50,[10],27.4 µM
same,TGI,[10],85 µM
same,Activity,SF-268 [11],<=32%
same,GI50,BT-549,24.6 µM
same,GI50,SNB-19,33.8 µM
same,GI50,SF-539,22.7 µM
same,GI50,SF-295,18.9 µM
same,GI50,SW-620,30 µM
same,GI50,SF-268 [12],30.7 µM
same,GI50,KM12,21.5 µM
same,GI50,HCT-15,22.6 µM
same,GI50,HCC 2998,13.9 µM
same,GI50,NCI-H522,32.8 µM
same,GI50,COLO 205,41.9 µM
same,GI50,[13],56.6 µM
same,GI50,NCI-H460,24.6 µM
same,GI50,HOP-92,24.9 µM
same,GI50,EKVX,19.5 µM
same,GI50,HOP-62,20.3 µM
same,GI50,CCRF-CEM,30.5 µM
same,Activity,MCF7 [14],<=32%
O=C1CS/C(=N\S(=O)(=O)c2ccc(N3N=C4c5ccccc5CC4C3c3cccs3)cc2)N1C(=O)c1ccccc1 (stereo not given),GI50,MDA-MB-435,37.4 µM
same,GI50,M14,44.7 µM
same,GI50,LOX IMVI,22.7 µM
same,GI50,MCF7 [1],> 100 µM
same,GI50,MDA-MB-231,44.6 µM
same,GI50,UO-31,> 100 µM
same,GI50,PC-3,38.1 µM
same,GI50,RXF 393,63.9 µM
same,GI50,786-0,48.8 µM
same,GI50,SK-OV-3,> 100 µM
same,GI50,OVCAR-5,32.2 µM
same,GI50,IGROV-1,28.3 µM
same,GI50,OVCAR-3,59.2 µM
same,GI50,UACC-62,23.2 µM
same,GI50,UACC-257,> 100 µM
same,GI50,SK-MEL-5,22.7 µM
same,GI50,SK-MEL-2,> 100 µM
same,GI50,SK-MEL-28,> 100 µM
same,GI50,[2],63 µM
same,TGI,[2],> 100 µM
same,GI50,[3],38.1 µM
same,TGI,[3],> 100 µM
same,GI50,[4],59.4 µM
same,TGI,[4],99.1 µM
same,GI50,[5],60.9 µM
same,TGI,[5],> 100 µM
same,GI50,[6],73.3 µM
same,TGI,[6],> 100 µM
same,GI50,[7],64.9 µM
same,TGI,[7],> 100 µM
same,GI50,[8],40.4 µM
same,TGI,[8],79.8 µM
same,GI50,[9],49.3 µM
same,TGI,[9],85.9 µM
same,GI50,[10],31.2 µM
same,TGI,[10],84.5 µM
same,Activity,SF-268 [11],<=32%
same,GI50,BT-549,33.5 µM
same,GI50,SNB-19,77 µM
same,GI50,SF-539,44.6 µM
same,GI50,SF-295,31.7 µM
same,GI50,SW-620,38.5 µM
same,GI50,SF-268 [12],> 100 µM
same,GI50,KM12,21.4 µM
same,GI50,HCT-15,56.3 µM
same,GI50,HCC 2998,17.6 µM
same,GI50,NCI-H522,60.1 µM
same,GI50,COLO 205,51 µM
same,GI50,[13],16.6 µM
same,GI50,NCI-H460,> 100 µM
same,GI50,HOP-92,37.3 µM
same,GI50,EKVX,42.4 µM
same,GI50,HOP-62,32.9 µM
same,GI50,CCRF-CEM,37.5 µM
same,Activity,MCF7 [14],<=32%
